The text below walks through data of patent US20210275415A1, “AN ANTIMICROBIAL COMPOSITION” (Conopco, Inc., d/b/a UNILEVER, priority 2017, published 2021).

One assay relates to Staphylococcus aureus. Briefly: ΣFIC assay against Staphylococcus aureus (MIC by alamar blue, checkerboard). The note with it: for interaction of the combination (synergy/additivity) in words: conclusion from Table 2; for MIC: Staphylococcus aureus, 24 h, read-out: Minimum Inhibition Concentration (MIC). The format is cell-based, S. aureus (ATCC 12600). On the procedure: Effect of sphingosine with triclosan as well as triclocarban was also tested. A brief description of the method is given below.
Methods: ΣFIC assay against Staphylococcus aureus
They are then incubated at 37° C. overnight (16 hours) with shaking. The overnight culture is diluted using TSB to 5*10^4 cell/ml.
Zinc pyrithione was serially diluted (2-fold) to prepare in a range of 0.5 to 500 ppm in the growth medium. The AML compound was serially diluted (2-fold) to prepare in a range of 16 to 1,000 ppm for sapienic acid, and palmitoleic acid; and 4 to 250 ppm for other AMLs in growth medium. Triclosan was serially diluted (2-fold) to prepare in a range of 0.2 to 200 ppm and triclocarban in a range of 2 to 2000 ppm in growth medium.
Binary combinations of ZPTO or triclosan/triclocarban and the AML compound were prepared in 96-well plate by mixing 20 μl of zinc pyrithione solution with 20 μl of AML compound. The solution in each well were further mixed with 160 μl of TSB and 20 μl of S. aureus. The final cell density in the testing plate is around 4*10^4 cell/ml, and the final concentration of actives in each well of the 96-well plate were shown below.
Then 20 μl of alamar blue (0.01%) was added into each well, and the plate was incubated at 37° C. for one day to observe the color change. Red color indicates microbial growth and the non-changing blue color indicates no growth.
(§1) The MIC is defined as the absolute lowest concentration of active that provides complete microbial growth inhibition as indicated by the blue color of alamar blue under the tested condition.
The differing behaviors of inhibitory antimicrobials in isolation and mixtures have been widely explored using the concept of the Fractional Concentration (FC) and Fractional Inhibitory Concentration (FIC). The parameter can be defined as follows: […]
(§2) These relationships can be expressed mathematically by summing the fractional MIC values for all the components present in the mixture to give the “fractional inhibition index”. There is no consistent approach in the academic or patent literature in defining precise limiting ΣFIC values that differentiate synergy from additivity or antagonism. In this study, we have adopted a liberal approach defining any binary mixture with ΣFIC<0.9 as showing evidence of synergistic behavior.

A further assay concerns Malassezia furfur. Briefly: ΣFIC assay against Malassezia furfur (MIC by alamar blue, checkerboard). The format is cell-based, M. furfur (CBS 1878). Particulars: M. furfur, Pityrosporum Broth, 32° C., lowest concentration giving complete growth inhibition (alamar blue stays blue), active alone; for MIC: Malassezia furfur, read-out: Minimum Inhibition Concentration (MIC). On the procedure:
Synergistic interaction between ZPTO and the AML compounds was determined using the ΣFIC assay against Malassezia furfur. A brief description of the method is given below.
Method: ΣFIC assay against Malassezia furfur
They are then incubated at 32° C. for 48 hours with shaking. Then, 1 ml of the first broth culture is transferred into 9 ml of fresh PB and incubated at 32° C. for 48 hours with shaking. The final culture should contain 2 to 6×10^6 cells/ml. This is achieved by diluting using PB to 5*10^5 cell/ml.
Binary combinations of ZPTO and the AML compound were prepared in 96-well plate by mixing 20 μl of zinc pyrithione solution with 20 μl of AML compound. The solution in each well were further mixed with 160 μl of PB and 20 μl of M. furfur. The final cell density in the testing plate is around 5*10^4 cell/ml, and the final concentration of actives in each well of the 96-well plate were shown below.
The plate was incubated at 32° C. for one day. Then 20 μl of alamar blue (0.01%) was added into each well with a further incubation for one day to observe the color change. Red color indicates microbial growth and the non-changing blue color indicates no growth.
as §1
The differing behaviour of inhibitory antimicrobials in isolation and mixtures have been widely explored using the concept of the Fractional Concentration (FC) and Fractional Inhibitory Concentration (FIC). The parameter can be defined as follows: […]
as §2
(In general: Resazurin is reduced to fluorescent resorufin, in cell work by metabolically active cells.)

[1] abbreviates: S. aureus, TSB, 37° C. one day, lowest concentration giving complete growth inhibition (alamar blue stays blue), active alone.

Read-outs that look alike come from different tables or passages of the source.

In the case of `Oc1cc(Cl)ccc1Oc1ccc(Cl)cc1Cl` [triclosan], the “interaction of the combination (synergy/additivity) in words” value in the assay on Staphylococcus aureus (S. aureus) is given as “additive but not synergistic effect”. The MIC with Staphylococcus aureus was 0.16 µg/mL. For the compound `CCCCCC/C=C\CCCCCCCC(=O)O` [palmitoleic acid], the MIC in the assay on Malassezia furfur was found to be 5000 µg/mL. Regarding `CCCCCCCCC/C=C\CCCCC(=O)O` [sapienic acid], the “Minimum Inhibition Concentration (MIC)” value with Staphylococcus aureus (setting [1]) stood at 25 ppm. As to `CCCCCCCCCCCCCCC[C@@H](O)[C@@H](N)CO` [dihydrosphingosine], the results for the “Minimum Inhibition Concentration (MIC)” value in the assay on Staphylococcus aureus (setting [1]) and with Malassezia furfur were 6.3 ppm and 1000 ppm, respectively. `O=C(Nc1ccc(Cl)cc1)Nc1ccc(Cl)c(Cl)c1` [triclocarban]: in the assay on Staphylococcus aureus (S. aureus), the “interaction of the combination (synergy/additivity) in words” value is listed as “additive but not synergistic effect”. Further, the MIC with Staphylococcus aureus (setting [1]) came out at 3.13 µg/mL. With `CCCCCCCCCCCCC/C=C/[C@@H](O)[C@@H](N)CO` [sphingosine], the MIC in the assay with Staphylococcus aureus (setting [1]) was determined as 3.1 µg/mL; in the assay on Malassezia furfur it was 1000 µg/mL. For the compound `CCCCCCCCCCCCCC[C@@H](O)[C@@H](O)[C@@H](N)CO` [phytosphingosine], in the assay on Malassezia furfur, the MIC amounted to 125 µg/mL.
